{"source": "patent US10434086B2", "about": "“Combination therapies with curaxins” (Incuron, Inc., priority 2014, dated 2019)", "key": {"[1]": {"tested_on": "patient-derived PDA #13590 tumors", "test": "PDA #13590 study: CBL0137/gemcitabine against patient-derived pancreatic tumor engrafts", "assay_type": "in vivo, SCID mice", "text": "(§1) Seventy and sixty female athymic nude mice were obtained for each H1975 Non-Small Cell Lung Cancer Xenograft study and split into treatment groups consisting of 10 animals per group (2 cages of 5 mice per cage).\n(§2) Preparation and subcutaneous implantation of tumor pieces: HepG2 tumors (passage 2 for HepG2 study and passage 1 for HepG2 (sub-dose CLB0137) study) or Hep3B tumors (passage 1 for Hep3B study and passage 9 for Hep3B (sub-dose CLB0137) study) were propagated in athymic nude mice and harvested from euthanized mice when they reached ˜500-900 mm^3. PDA tumors (passage 6) were propagated in SCID mice (both flanks) and harvested from euthanized mice when they reached ˜600-700 mm^3 in size. Harvested tumors were transferred to a sterile Petri dish containing RPMI-10% FBS medium or D-PBS plus penicillin/streptomycin. Enough media was added to bathe the tumor in order to ensure the viability of the transplant material. Tumors were dissected into 2 mm×2 mm cubes using a sterile scalpel. Care was taken to make the pieces as uniform in size and shape as possible. Tumor pieces were implanted into recipient mice immediately after being prepared.\n(§3) Tumor Size Measurements: Tumor size was measured by digital caliper in two dimensions (in mm): maximum length (l) and maximum width (w) taken perpendicular to one another. The measurements were used to calculate tumor volume according to the formula: tumor volume=(l×w2)/2 (w<l). The value obtained by this formula is also equal to the mass of the tumor in mg. Starting 2 days after tumor implantation, tumor measurements were made every 2-3 days prior to treatment initiation and then twice per week (e.g., on Day 1 (D1, the day of treatment initiation), D4, D8, D11, D15, D18, D22, D25, D29, D32, D36, D39, D43, D46, D50, D53 and D57). Tumor measurements were collected more frequently when tumor size approached the tumor size endpoint in order to prevent passing the endpoint between scheduled measurements.\n(§4) Administration of test and control articles: Mice were administered the designated solutions when the mean tumor volume per treatment group was ˜45-200 mm^3.\nThe volume of dosing solution administered ip or iv was 8 ml/kg mouse body weight. Intravenous injections were performed via the tail vein. Administration of drugs was done slowly without force on the syringe.\nMonitoring and Sample Collection: Twice daily, mice were monitored for mortality and morbidity for the duration of the experiment. […] All abnormal observations were documented and semi-quantitative scores were assigned for “body condition,” “posture,” and “activity.” Scores of 4, 3, 2, and 1 were assigned to normal conditions (4), and slightly (3), moderately (2) and severely (1) abnormal conditions, respectively. Cages were taken to a laminar flow hood and opened in order to clearly assess mouse activity.\nData analysis: For all study groups, maximum tumor growth inhibition was calculated for Day 11, 13, or 15 (Day X). […] For each tumor, relative tumor size was calculated relative to its size on Day 1 when treatment was initiated (i.e., fold tumor growth). To calculate the maximum tumor growth inhibition for each tumor, the following equation was used: 100−(fold tumor growth drug-treated Day X/mean fold tumor growth vehicle-treated Day X)*100. Differences in tumor sizes between groups were determined using ANOVA analysis (GraphPad Prism 5 Software) where “*” refers to P=0.01-0.05 (significant), “**” refers to P=0.001-0.01 (very significant) and “***” refers to P<0.001 (extremely significant), Differences that were not statistically significant are indicated with “ns”. […] Tumor growth delay (T−C) was calculated by subtracting the median time for the control to reach the 1000 mm^3 size endpoint from that of the median time for the treated groups to reach the size endpoint."}, "H1975 NSCLC tumors": {"tested_on": "H1975 NSCLC tumors", "procedure": "as §1\nDescription of H1975 NSCLS test material: Human H1975 NSCLC cell line (originally from ATCC) suspension was mixed 1:1 with Matrigel at 5×10^7 cells/ml (5×10^6 cells delivered per 100 μl injection) and kept on ice until inoculation.\nFor the NSCLC studies, solutions were prepared in two lots (once per 2 weeks) to ensure that fresh solutions were used throughout the study.\nPreparation and inoculation of tumor cells: The night before inoculation, the Matrigel was placed on ice in the refrigerator to thaw. Prior to the start of cell harvesting, a supply of pipettes, tubes and tips were placed into the freezer so that they were cold when it was time to work with the Matrigel. One ml syringes and ½″ 23 G needles were also pre-chilled. This step was necessary to prevent premature solidification of Matrigel, which becomes solid at room temperature or higher (i.e., 37° C.).\nH1975 cell suspension was prepared immediately before tumor inoculation in PBS. H1975 cells at passage 16 were harvested from forty 150 mm diameter dishes and diluted to 10×10^7 cells/ml in PBS (5.87 ml). Just prior to inoculation, using pre-chilled tips and tubes, 4.5 ml of this cell suspension was mixed with an equal volume of Matrigel (1:1) to a total volume of 9 mL Cell suspensions were kept on ice. The final concentration of cells was […].\nPrior to inoculation of mice, the tumor cell-Matrigel mixture was carefully mixed by inverting the tube several times. A pre-chilled 1 nil syringe was filled with tumor cell-Matrigel mixture and then a pre-chilled ½″ 23 G capped needle was attached to the end of syringe to perform the injection. The closed filled syringe was inverted several times and then 100 μl of the cell-Matrigel mixture was inoculated subcutaneously into the left flank of each mouse.\nFor inoculation, mice were anesthetized with isoflurane (3-4% induction in 100% O2, 1-2% maintenance) to aid in proper subcutaneous inoculation.\nas §3, §4\nFor all groups, Q4 d dosing was performed on D1, 05, 09, 013, 017, 021, 025, and 029 of the study. For groups that received only one drug rather than both, the vehicle for the drug that was not given was administered in its place as a mock administration. The volume of dosing solution administered ip or iv was 8 ml/kg mouse body weight. Intravenous injections were performed via the tail vein. Administration of drugs was done slowly without force on the syringe.\nMonitoring and Sample Collection: Twice daily, mice were monitored for mortality and morbidity for the duration of the experiment. […] All abnormal observations were documented and semi-quantitative scores were assigned for “body condition,” “posture,” and “activity.” Scores of 4, 3, 2, and 1 were assigned to normal conditions (4), and slightly (3), moderately (2) and severely (1) abnormal conditions, respectively."}, "A549": {"tested_on": "A549", "test": "A549 engraft experiment", "assay_type": "in vivo", "details": "one engraft experiment"}, "[2]": {"tested_on": "patient-derived PDA #13756 tumors", "test": "PDA #13756 study: CBL0137/gemcitabine against patient-derived pancreatic tumor engrafts", "assay_type": "in vivo, SCID mice", "text": "as §1, §2, §3, §4\nThe volume of dosing solution administered ip or iv was 8 ml/kg mouse body weight. Intravenous injections were performed via the tail vein. […]\nMonitoring and Sample Collection: Twice daily, mice were monitored for mortality and morbidity for the duration of the experiment. […] All abnormal observations were documented and semi-quantitative scores were assigned for “body condition,” “posture,” and “activity.” Scores of 4, 3, 2, and 1 were assigned to normal conditions (4), and slightly (3), moderately (2) and severely (1) abnormal conditions, respectively. […]\nData analysis: For all study groups, maximum tumor growth inhibition was calculated for Day 11, 13, or 15 (Day X). […] For each tumor, relative tumor size was calculated relative to its size on Day 1 when treatment was initiated (i.e., fold tumor growth). […] Differences in tumor sizes between groups were determined using ANOVA analysis (GraphPad Prism 5 Software) where “*” refers to P=0.01-0.05 (significant), “**” refers to P=0.001-0.01 (very significant) and “***” refers to P<0.001 (extremely significant), Differences that were not statistically significant are indicated with “ns”. […] Tumor growth delay (T−C) was calculated by subtracting the median time for the control to reach the 1000 mm^3 size endpoint from that of the median time for the treated groups to reach the size endpoint."}}, "note": "Read-outs that look alike come from different tables or passages of the source.", "data": [{"smiles": "Nc1ccn([C@@H]2O[C@H](CO)[C@@H](O)C2(F)F)c(=O)n1", "note": "[gemcitabine]", "values": [{"measurement": "individual tumors showing regression or disappeared", "setting": "[1]; Day 29, vehicle 1/9", "result": "6/6"}, {"measurement": "mean fold tumor growth", "setting": "[1]; Day 57", "result": "7.91±2.7", "unit": "fold"}, {"measurement": "mean fold tumor growth", "setting": "[1]; Day 71", "result": "12.98±3.9", "unit": "fold"}, {"measurement": "animals surviving to the end of the study", "setting": "[1]; Day 88, vehicle 0/5", "result": "¼"}, {"measurement": "antitumor efficacy (in words)", "setting": "[1]; PDA #13590", "result": "effective against PDA #13590 tumor growth as single agents"}, {"measurement": "median survival time (MST)", "setting": "[1]; vehicle 46 days, study end Day 88", "result": 76.5, "unit": "days"}, {"measurement": "median time to reach endpoint", "setting": "H1975 NSCLC tumors; 2000 mm^3 size endpoint, vehicle 15.6 days", "result": 47.8, "unit": "days"}, {"measurement": "individual tumors smaller than at start of treatment on Day 1", "setting": "H1975 NSCLC tumors; Day 5, vehicle 1/9", "result": "9/10"}, {"measurement": "tumor growth inhibition", "setting": "H1975 NSCLC tumors; Day 15", "result": 88.8, "unit": "%"}, {"measurement": "mean fold tumor growth", "setting": "H1975 NSCLC tumors; Day 15, vehicle 8.52-fold", "result": 0.958, "unit": "fold"}, {"measurement": "tumor growth inhibition", "setting": "H1975 NSCLC tumors; Day 22", "result": 82.6, "unit": "%"}, {"measurement": "mean fold tumor growth", "setting": "H1975 NSCLC tumors; Day 22, CBL0137 70 mg/kg iv Q4d, gemcitabine 40 mg/kg ip Q4d, vehicle 15.2", "result": 2.7, "unit": "fold"}, {"measurement": "mean fold tumor growth", "setting": "H1975 NSCLC tumors; Day 39", "result": 3.66, "unit": "fold"}, {"measurement": "delay in tumor growth (relative to vehicle treatment)", "setting": "H1975 NSCLC tumors; mouse, in vivo", "result": 32.2, "unit": "days"}, {"measurement": "signs of morbidity", "setting": "H1975 NSCLC tumors; mouse, in vivo", "result": "no signs of morbidity"}, {"measurement": "toxicity, cage-side observations", "setting": "H1975 NSCLC tumors; mouse, in vivo", "result": "None of the cage-side observations were indicative of any toxicity"}, {"measurement": "median survival time (MST)", "setting": "H1975 NSCLC tumors; vehicle 16 days", "result": 48.5, "unit": "days"}, {"measurement": "median survival time (MST)", "setting": "H1975 NSCLC tumors; vehicle 22 days", "result": 51.5, "unit": "days"}, {"measurement": "response of A549 in engraft experiment (in words)", "setting": "A549", "result": "resistant to gemcitabine"}, {"measurement": "mean fold tumor growth", "setting": "[2]; Day 15, gemcitabine 40 mg/kg ip Q4d, CBL0137 80 mg/kg iv 1×/wk, 4 weeks", "result": 0.55, "unit": "fold"}, {"measurement": "tumor growth (in words)", "setting": "[2]; Day 29", "result": "regression of all tumors"}, {"measurement": "mean fold tumor growth", "setting": "[2]; Day 54", "result": 26.7, "unit": "fold"}, {"measurement": "individual tumors regressed or disappeared", "setting": "[2]; by Day 15", "result": "8/10"}, {"measurement": "animal survival time", "setting": "[2]; gemcitabine 40 mg/kg ip Q4d, CBL0137 80 mg/kg iv 1×/wk", "result": 54, "unit": "days"}]}]}
